Data: US20190274290A1, “GENETICALLY MODIFIED MOUSE MODEL FOR HUMAN HEPATOCYTE XENOTRANSPLANTATION” (The Jackson Laboratory, priority 2016, published 2019)

Assays:
NSG-PiZ mice [1] = experiment: Human hepatocyte engraftment in NSG-PiZ mice, serum human albumin ELISA; assay type: in vivo, mouse; conditions: for human hepatocyte engraftment (serum human albumin), comparison of groups: two doses of 50 mg/kg intraperitoneal MCT 14 and 7 days before engraftment, 50 mg/kg
Method: Human albumin levels were evaluated post-engraftment by using the human Albumin ELISA quantitation set (Bethyl Labs) as described by the manufacturer. For all assays, after incubation with the HRP-conjugated antibody, 3,3′,5,5′-tetramethylbenzidine (TMB) peroxidase substrate (KPL) was applied, and the reactions were stopped by adding 2 […] (Fisher Scientific) after 15-30 min. Plates were read at […] on a VersaMax microplate reader (Molecular Devices).
Animals were pre-treated with 50 mg/kg MCT (Oakwood Chemical) intraperitoneally 7 days or 14 and 7 days prior to engraftment or treated at the time of engraftment with 1 μg purified NA/LE hamster anti-mouse CD95 antibody (first apoptosis signal [FAS], BD PharMingen) intravenously.
To investigate additional methods for increased human hepatocyte engraftment, two approaches used in the liver xenograft field were tested: monocrotaline (MCT) and a mouse-specific anti-Fas antigen (CD95) antibody. MCT is a pyrrolizidine plant alkaloid with known endothelial toxicity in the lung, liver, and kidney. […] The anti-CD95 antibody recognizes mouse Fas and leads to cytolytic activity of cells expressing mouse Fas by inducing apoptosis of mouse hepatocytes and other cells.
(§1) All recipient mice were males, age 6-10 weeks, and they were anesthetized by isoflurane inhalation in a closed ventilation chamber. For intrasplenic injection, an incision was made on mouse left paralumbar fossa in order to expose the spleen. […] The exposed spleen was returned to the abdominal cavity and the incision was closed with an absorbable suture (4-0 Vicryl). Vet Bond was applied topically to seal the skin incision. For partial hepatectomy, median-line incision was made to expose the liver. The median lobe of the liver and the left lateral lobe were seemly tied off with 4-0 silk Blake braided suture and excised. Two-thirds of the total liver was removed by partial hepatectomy. The remaining liver was gently returned to the abdominal cavity. […]

NSG-PiZ mice [2] = experiment: Percentage of human hepatocytes in engrafted mouse liver (flow cytometry, anti-HLA-ABC / CD324); assay type: in vivo; conditions: MCT-treated NSG-PiZ mice; flow cytometry with anti-HLA antibody
Method: After dissociation, cells were stained on ice for 30 minutes with anti-mouse/human CD324 (Biolegend) and anti-HLA-ABC (BD Biosciences) antibodies to determine human hepatocyte percentage. Cells were then washed twice with 1×PBS and resuspended in 1×PBS supplemented with 0.5% FHS and 2 mM EDTA. Cells were acquired using FACS-LSRII flow cytometer (BD Biosciences) and analyzed with FlowJo software (version 10.1; Tree Star Inc.).
as §1, with “cavity. Finally, the opposing sections of the abdominal wall were aligned at the ventral midline, and an absorbable suture (4-0 Vicryl) was applied to close the incision.” for “cavity.”

C[C@H]1C(=O)O[C@@H]2CCN3CC=C(COC(=O)[C@](C)(O)[C@]1(C)O)[C@H]23 [MCT, monocrotaline]
human hepatocyte engraftment (serum human albumin) (NSG-PiZ mice [1]; MCT 50 mg/kg before engraftment or 1 μg anti-mouse CD95 antibody at engraftment, versus intrasplenic engraftment alone): significantly increased
human hepatocyte engraftment (serum human albumin), comparison of groups (NSG-PiZ mice [1]): greatest engraftment
human hepatocyte engraftment (serum human albumin), comparison of groups (NSG-PiZ mice [1]; listed as monocrotaline): greatest serum human albumin concentrations
hepatocytes of human origin (NSG-PiZ mice [2]): at least 25%
